# Where two headings read alike, the source gives them in different places.
# Legend:
# Neisseria gonorrhoeae = assay: Broth microdilution MIC testing (Example 1); format: cell-based; conditions: Neisseria gonorrhoeae, broth microdilution, read-out: MIC
# Description: (§1) In this study, to evaluate the spectrum of activity, cannabidiol (CBD) was profiled against Neisseria. Testing was conducted following guidelines recommended by the Clinical and Laboratory Standards Institute (CLSI, 1-4), using vancomycin, meropenem, levofloxacin, and gentamicin as comparators for testing aerobic bacteria.
# (§2) Test agents were supplied by Micromyx. Stock solutions of all compounds were prepared on the first day of testing at 101× the highest test concentration using solvents recommended by CLSI. CBD was prepared fresh on each of testing.
# (§3) The test organisms evaluated in this study consisted of clinical isolates from the Micromyx Repository, reference isolates from the American Type Culture Collection (ATCC; Manassas, Va.), isolates from the antibiotic resistance bank from the Centers for Disease Control and Prevention (CDC; Atlanta, Ga.), and isolates from the Network on Antimicrobial Resistance in Staphylococcus aureus (NARSA; BEI Resources, Manassas, Va.). Upon initial receipt at Micromyx, the organisms were sub-cultured onto an appropriate agar medium. Following incubation, colonies were harvested from these plates and cell suspensions prepared and frozen at −80° C. with a cryoprotectant.
# (§4) Prior to testing, Neisseria was streaked onto Chocolate agar (BD; Lot No. 9228071) and incubated at 35° C. in 5% CO2 for 24 hr.
# (§5) For Neisseria, a modified medium described by the ATCC as capable of supporting growth was used. This medium contains 15 g Oxoid Special Peptone, 1 g corn starch (Ward's Science; Rochester, N.Y.; Lot 39-3271), 5 g NaCl (VWR; 57897), 4 g K2HPO4 (Sigma; Lot SLBT7061), 1 g KH2PO4 (SLBC1921V), and 1% IsoVitaleX (BD; Lot 8323954) enrichment per 500 mL.
# (§6) MIC values were determined using a broth microdilution procedure described by CLSI (1-4). Automated liquid handlers (Multidrop 384, Labsystems, Helsinki, Finland; Biomek 2000 and Biomek FX, Beckman Coulter, Fullerton, Calif.) were used to conduct serial dilutions and liquid transfers.
# (§7) To prepare the drug mother plates, which would provide the serial drug dilutions for the replicate daughter plates, the wells of columns 2 through 12 of standard 96-well microdilution plates (Costar 3795) were filled with 150 μl of the designated diluent for each row of drug. The test article and comparator compounds (300 μl at 101× the highest concentration to be tested) were dispensed into the appropriate wells in column 1. The Biomek 2000 was then used to make 2-fold serial dilutions in the mother plates from column 1 through column 11. The wells of column 12 contained no drug and served as the organism growth control wells for the assay.
# (§8) The daughter plates were loaded with 190 μL per well of the appropriate test medium for the tested organism using the Multidrop 384. The daughter plates were completed on the Biomek FX instrument which transferred 2 μL of drug solution from each well of a mother plate to the corresponding well of each daughter plate in a single step.
# A standardized inoculum of each test organism was prepared per CLSI methods (1-4). The inoculum for each organism was dispensed into sterile reservoirs divided by length (Beckman Coulter), and the Biomek 2000 was used to inoculate the plates. Daughter plates were placed on the Biomek 2000 work surface in reverse orientation so that inoculation took place from low to high drug concentration. Plates were inoculated with 10 μL of the inoculum resulting in a final cell density of approximately 5×10^5 CFU/mL per well.
# The plates for testing of aerobic organisms were stacked 3 to 4 high, covered with a sterile lid, and incubated at 35° C. and 5% CO2 for the time periods specified in CLSI (1-4). […] Following incubation, the microplates were removed from the incubator and viewed from the bottom using a plate viewer. […] The MIC was read and recorded as the lowest concentration of drug that inhibited visible growth of the organism.
# Neisseria meningitidis = assay: Broth microdilution MIC testing (Example 1); format: cell-based; conditions: Neisseria meningitidis, ATCC13090; N. meningitidis MMX 0707 / ATCC 13090; broth microdilution; read-out: MIC
# Description: as §1, §2, §3, §4, §5, §6, §7, §8
# A standardized inoculum of each test organism was prepared per CLSI methods (1-4). The inoculum for each organism was dispensed into sterile reservoirs divided by length (Beckman Coulter), and the Biomek 2000 was used to inoculate the plates. […]
# The plates for testing of aerobic organisms were stacked 3 to 4 high, covered with a sterile lid, and incubated at 35° C. and 5% CO2 for the time periods specified in CLSI (1-4). […] The MIC was read and recorded as the lowest concentration of drug that inhibited visible growth of the organism.
smiles,measurement,setting,value
"C=C(C)C1CCC(C)=CC1c1c(O)cc(CCCCC)cc1O (stereo not shown) [CBD, 2-[3-methyl-6-(1-methylethenyl)-2-cyclohexen-1-yl]-5-pentyl-1,3-benzenediol]",MIC,"Neisseria gonorrhoeae; ATCC49226, N. gonorrhoeae MMX 0683 / ATCC 49226, plate read at 40 hr",1 mg/L
same,MIC,Neisseria gonorrhoeae; N. gonorrhoeae MMX 6746,1 mg/L
same,MIC,"Neisseria gonorrhoeae; N. gonorrhoeae MMX 6757, plate read at 40 hr",2 mg/L
same,MIC,Neisseria meningitidis,0.25 mg/L

# — US20230015949A1, “NEISSERIA TREATMENT USING CANNABINOIDS” (priority 2019, published 2023)
